Patent US20220323406A1, “METHODS AND COMPOSITIONS FOR DIFFERENTIATING STEM CELLS” (Massachusetts Institute of Technology, priority 2019, published 2022)

Legend:
Conditions in all cases: primary screen
[1] = tested on: ENR+CD organoids (ISC to Paneth cell differentiation); assay: Primary screen: basal (non-stimulated) lysozyme secretion LYZ.NS, 2.5-D 384-well ENR+CD organoid differentiation; type: cell-based, mouse
Text: (§1) High-throughput screening.

[2] = tested on: ENR+CD organoids; assay: Primary screen: ATP (CellTiter-Glo 3D, CTG) cell number/viability, 2.5-D 384-well ENR+CD organoids;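 also: compounds given at plating and again on day 3 over a 6-day differentiation from ENR+CV stem-cell-enriched precursors, ATP measured on day 6, plate median as control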
[3] = tested on: ENR+CD organoids (ISC to Paneth cell differentiation); assay: Primary screen: CCh-stimulated lysozyme secretion LYZ.S, 2.5-D 384-well ENR+CD organoid differentiation; type: cell-based, mouse
Text: as §1

SMILES	Dose.FC.LYZ.NS (log2 fold change) ([1]; dose 0.08 uM)	Z.LYZ.NS (standard z score) ([1]; dose 0.08 uM)	Dose.FC.LYZ.NS (log2 fold change) ([1]; dose 0.40 uM)	Z.LYZ.NS (standard z score) ([1]; dose 0.40 uM)	Dose.FC.LYZ.NS (log2 fold change) ([1]; dose 2.00 uM)	Z.LYZ.NS (standard z score) ([1]; dose 2.00 uM)	Dose.FC.LYZ.NS (log2 fold change) ([1]; dose 10.00 uM)	Z.LYZ.NS (standard z score) ([1]; dose 10.00 uM)	Dose.FC.CTG (log2 fold change) ([2]; dose 0.08 uM)	Z.CTG (standard z score) ([2]; dose 0.08 uM)	Dose.FC.CTG (log2 fold change) ([2]; dose 0.40 uM)	Z.CTG (standard z score) ([2]; dose 0.40 uM)	Dose.FC.CTG (log2 fold change) ([2]; dose 2.00 uM)	Z.CTG (standard z score) ([2]; dose 2.00 uM)	Dose.FC.CTG (log2 fold change) ([2]; dose 10.00 uM)	Z.CTG (standard z score) ([2]; dose 10.00 uM)	Dose.FC.LYZ.S (log2 fold change) ([3]; dose 0.08 uM)	Dose.FC.LYZ.S (log2 fold change) ([3]; dose 0.40 uM)	Dose.FC.LYZ.S (log2 fold change) ([3]; dose 2.00 uM)	Dose.FC.LYZ.S (log2 fold change) ([3]; dose 10.00 uM)
Cc1noc(-c2ccc(CSCCC(=O)O)cc2)c1NC(=O)OC(C)c1ccccc1Cl (centres unmarked) [Ki16425]	0.001	0.005	0.117	1.017	−0.008	−0.069	−0.038	−0.327	−0.051	−0.121	−0.002	−0.005	−0.078	−0.185	−0.165	−0.394	0.022	0.114	−0.021	−0.071
O=C(c1cn(Cc2cncn2Cc2ccc(Br)cc2)cc1-c1cccc2ccccc12)N1CCOCC1 [LB42708]	−0.116	−1.010	−0.140	−1.221	−0.176	−1.531	−0.182	−1.587	−0.072	−0.172	−0.342	−0.817	−0.116	−0.277	−0.706	−1.685	−0.089	−0.144	−0.238	−0.233
Cc1c(C(=O)Nc2ccc(N3C[C@@H](C)O[C@@H](C)C3)nc2)cccc1-c1ccc(OC(F)(F)F)cc1 [LDE225 (NVP-LDE225, Erismodegib)]	0.085	0.739	0.101	0.881	0.011	0.094	0.049	0.426	0.107	0.255	0.067	0.159	0.229	0.546	−0.001	−0.002	0.095	0.074	0.002	0.006
Cc1cc(Nc2ncc(Cl)c(Nc3ccccc3S(=O)(=O)C(C)C)n2)c(OC(C)C)cc1C1CCNCC1 [LDK378]	0.061	0.534	−0.053	−0.465	−0.195	−1.702	−0.338	−2.939	0.135	–	0.004	–	−0.364	–	−1.292	–	0.118	−0.047	−0.281	−0.487
c1cc(-c2cnn3cc(-c4ccc(N5CCNCC5)cc4)cnc23)c2cccnc2c1 [LDN-212854]	0.095	0.823	0.051	0.446	−0.217	−1.885	−0.273	−2.375	0.238	0.568	0.129	0.309	−0.475	−1.134	−1.263	−3.018	0.162	0.026	−0.292	−0.399
C[C@H](NC(=O)[C@@H](O)c1cc(F)cc(F)c1)C(=O)N[C@@H]1C(=O)N(C)c2ccccc2-c2ccccc21 [LY411575]	0.040	0.347	−0.050	−0.434	−0.069	−0.598	−0.109	−0.949	0.035	0.083	−0.172	−0.411	−0.172	−0.412	−0.259	−0.618	0.024	0.041	−0.091	−0.157
Cc1cccc(-c2nn3c(c2-c2ccnc4ccc(C(N)=O)cc24)CCC3)n1 [LY2157299]	0.227	1.973	0.140	1.221	0.092	0.799	0.162	1.408	0.091	0.218	0.137	0.328	0.017	0.041	0.095	0.226	0.187	0.199	0.113	0.223
CC(C)(C)Cn1c(N)nc2ccc(-c3[nH]c(C(C)(C)C)nc3-c3ccc(F)cc3)nc21 [LY2228820]	0.065	0.569	−0.100	−0.874	0.043	0.377	−0.126	−1.099	−0.299	−0.715	−0.340	−0.812	−0.339	−0.810	−0.332	−0.793	−0.017	−0.054	−0.130	−0.164
Cc1cnc(NC(=O)Nc2cc(Br)c(C)cc2OC[C@@H]2CNCCO2)cn1 [LY2603618]	−0.005	−0.046	−0.091	−0.791	−0.193	−1.685	−0.233	−2.026	−0.004	−0.010	−0.238	−0.567	−0.396	−0.946	−0.983	−2.347	0.009	−0.147	−0.269	−0.356
Cc1cc(Nc2cc(CN3CCOCC3)c3nc(C)c(Cc4ccc(Cl)cc4F)n3n2)n[nH]1 [LY2784544]	0.132	1.152	0.004	0.033	0.068	0.591	−0.280	−2.439	0.108	0.259	0.062	0.148	0.181	0.433	−0.831	−1.984	0.123	0.077	0.114	−0.367
O=C(C[S+]([O-])Cc1ccco1)NC/C=C\COc1cc(CN2CCCCC2)ccn1 (centres unmarked) [Lafutidine]	0.043	0.372	0.007	0.059	0.037	0.320	0.075	0.657	0.152	–	0.145	–	0.138	–	−0.098	–	0.052	0.078	0.076	−0.014
